{"source": "patent US20020015956A1", "about": "“Compositions and methods for the identification, assessment, prevention, and therapy of human cancers” (priority 2000, published 2002)", "origin": "cited, not measured here", "test_system": "tumor", "conditions": "animal models", "data": [{"compound": "CC(=O)O[C@@]12CO[C@@H]1C[C@H](O)[C@@]1(C)C(=O)[C@H](O)C3=C(C)[C@@H](OC(=O)[C@H](O)[C@@H](NC(=O)OC(C)(C)C)c4ccccc4)C[C@@](O)([C@@H](OC(=O)c4ccccc4)[C@H]21)C3(C)C", "note": "[Taxotere, docetaxel]", "values": [{"measurement": "anti-tumor activity", "result": "good anti-tumor activity"}]}]}
